The source made the active and inactive calls. The rule behind the calls is not given here.
Legend:
P2Y purinoceptor 6 [1] = molecular target: T1, P2Y purinoceptor 6 (Homo sapiens, UniProt Q15077); experiment: Binding affinity to human recombinant P2Y6R expressed in HEK293 cells at 500 uM pretreated for 1 hrs followed by pulldown using streptavidin agarose resin by Western blot analysis; format: cell-based; details: filed as antagonist
P2Y purinoceptor 6 [2] = molecular target: T1, P2Y purinoceptor 6; experiment: Antagonist activity at human P2Y6R expressed in HEK293 cells assessed as inhibition of UDP-induced IP3 production preincubated for 0.5 hrs followed by UDP stimulation and measured after 12 hrs by ELISA analysis; format: functional, cell-based

T1 sequence (Q15077 whole entry): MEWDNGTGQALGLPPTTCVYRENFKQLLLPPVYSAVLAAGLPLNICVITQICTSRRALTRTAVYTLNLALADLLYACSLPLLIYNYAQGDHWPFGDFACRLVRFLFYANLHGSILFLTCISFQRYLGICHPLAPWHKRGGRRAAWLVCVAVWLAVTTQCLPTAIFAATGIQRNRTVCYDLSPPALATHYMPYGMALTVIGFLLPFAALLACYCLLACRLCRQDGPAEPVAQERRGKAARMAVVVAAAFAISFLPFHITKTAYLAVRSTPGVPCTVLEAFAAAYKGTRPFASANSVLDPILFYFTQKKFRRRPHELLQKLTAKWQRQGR

| Activity (P2Y purinoceptor 6 [1]) | IC50 (P2Y purinoceptor 6 [2]) | Structure (SMILES) |
| --- | --- | --- |
| Active |  | CC(C)(C)n1nc(-c2nc3cc(C(=O)NCCOCCOCCOCCNC(=O)CCCC[C@@H]4SC[C@@H]5NC(=O)N[C@@H]54)ccc3[nH]2)cc1-c1ccco1 |
|  | 0.173 µM | CC(C)(C)n1nc(-c2nc3ccccc3o2)cc1-c1ccccc1 |
|  | 0.457 µM | O=C(O)CCC(=O)N1N=C(c2nc3cc(Cl)ccc3[nH]2)CC1c1ccco1 (configuration not stated) |
|  | 0.126 µM | Cc1ccc2cc(C3CC(c4ccco4)=NN3C(=O)CCC(=O)O)c(Cl)nc2c1 (configuration not stated) |
|  | 0.0308 µM | CC(C)(C)n1nc(-c2nc3ccccc3o2)cc1-c1ccco1 |
|  | 0.128 µM | CC(C)(C)n1nc(-c2nc3cc(OC(F)(F)F)ccc3[nH]2)cc1-c1ccco1 |
|  | 0.0425 µM | Cc1ccc2nc(-c3cc(-c4ccccc4)n(C(C)(C)C)n3)oc2c1 |

Reference: ChEMBL document CHEMBL5380866, “Discovery of Selective P2Y6R Antagonists with High Affinity and In Vivo Efficacy for Inflammatory Disease Therapy” (J Med Chem, 2023)
